Values quoted from earlier work as cited in publication PMC5129521 (Diabetes, Obesity & Metabolism, 2016).

Conditions: mice

CCCCCCCCCCCCCCCC(=O)N[C@@H](CCC(=O)NCCCC[C@H](NC(=O)[C@H](C)NC(=O)[C@H](C)NC(=O)[C@H](CCC(N)=O)NC(=O)CNC(=O)[C@H](CCC(=O)O)NC(=O)[C@H](CC(C)C)NC(=O)[C@H](Cc1ccc(O)cc1)NC(=O)[C@H](CO)NC(=O)[C@H](CO)NC(=O)[C@@H](NC(=O)[C@H](CC(=O)O)NC(=O)[C@H](CO)NC(=O)[C@@H](NC(=O)[C@H](Cc1ccccc1)NC(=O)[C@@H](NC(=O)CNC(=O)[C@H](CCC(=O)O)NC(=O)[C@H](C)NC(=O)[C@@H](N)Cc1cnc[nH]1)[C@@H](C)O)[C@@H](C)O)C(C)C)C(=O)N[C@@H](CCC(=O)O)C(=O)N[C@@H](Cc1ccccc1)C(=O)N[C@H](C(=O)N[C@@H](C)C(=O)N[C@@H](Cc1c[nH]c2ccccc12)C(=O)N[C@@H](CC(C)C)C(=O)N[C@H](C(=O)N[C@@H](CCCNC(=N)N)C(=O)NCC(=O)N[C@@H](CCCNC(=N)N)C(=O)NCC(=O)O)C(C)C)[C@@H](C)CC)C(=O)O [Liraglutide]
Terminal plasma half‐life: ~7 h
